For 15 molecules, T/C results are on record in PubChem BioAssay AID328 (DTP/NCI, 2004).

In the assay the test system is BDF1 mice, P388 leukemia ip, median survival T/C. As to the kind of experiment: NCI In Vivo Anticancer Drug Screen. Data for tumor model P388 Leukemia (intraperitoneal) in B6D2F1 (BDF1) mice. Conditions: endpoint: median survival time, higher = longer survival. In a few lines:
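Transplantable tumour in mice; compound vs vehicle dosing; survival scored; ratio of treated to control reported.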

Setting [1] is: dose: 100.0 mg/kg/injection, schedule: Q01DX009 (ip), vehicle: saline with Tween-80.
[2] abbreviates: dose: 100.0 mg/kg/injection, schedule: Q04DX003 (ip), vehicle: saline with Tween-80.
Setting [3] is: dose: 200.0 mg/kg/injection, schedule: Q04DX003 (ip), vehicle: saline with Tween-80.
The mark [4] stands for this setting: dose: 12.5 mg/kg/injection, schedule: Q01DX009 (ip), vehicle: saline with Tween-80.
Where [5] appears, read: dose: 25.0 mg/kg/injection, schedule: Q01DX009 (ip), vehicle: saline with Tween-80.
Setting [6] is: dose: 50.0 mg/kg/injection, schedule: Q01DX009 (ip), vehicle: saline with Tween-80.
Where [7] appears, read: dose: 50.0 mg/kg/injection, schedule: Q04DX003 (ip), vehicle: saline with Tween-80.
Setting [8] is: dose: 50.0 mg/kg/injection, schedule: Q01DX009 (ip), vehicle: saline.

Several values for one entry are separate records, joined by “and”; a condition that tells them apart may be missing. Identical values can stand only once. Inconclusive results and toxic doses are left out.

Consider `CCN1C(=O)CN=C(c2ccccn2)c2cc(Cl)ccc21`, for which the T/C reads like this: (dose: 100.0 mg/kg/injection, schedule: Q01DX001 (ip), vehicle: Klucel (hydroxypropylcellulose) (HPC)) 90 % of control; (dose: 200.0 mg/kg/injection, schedule: Q01DX001 (ip), vehicle: Klucel (hydroxypropylcellulose) (HPC)) 104 % of control; (dose: 400.0 mg/kg/injection, schedule: Q01DX001 (ip), vehicle: Klucel (hydroxypropylcellulose) (HPC)) 95 % of control.
Regarding `CCS(=O)(=O)C(N=Nc1ccccc1)S(=O)(=O)CC`, the T/C reads like this: (dose: 20.0 mg/kg/injection, schedule: Q01DX009 (ip), vehicle: Klucel (hydroxypropylcellulose) (HPC)) 107 % of control; (dose: 40.0 mg/kg/injection, schedule: Q01DX009 (ip), vehicle: Klucel (hydroxypropylcellulose) (HPC)) 101 % of control; (dose: 80.0 mg/kg/injection, schedule: Q01DX009 (ip), vehicle: Klucel (hydroxypropylcellulose) (HPC)) 107 % of control.
Consider `CCN1c2ccccc2CC(CCN(C)Cc2ccccc2)(C(N)=O)c2ccccc21` (stereo not given), for which the T/C under setting [1] was 101 % of control.
`CCOc1ccc(Br)cc1/C=N/NS(=O)(=O)c1ccc(C)cc1`: the T/C is, setting by setting: under setting [2], 109 % of control; (dose: 176.0 mg/kg/injection, schedule: Q04DX003 (ip), vehicle: saline with Tween-80) 120 % of control; under setting [3], 109 % of control; (dose: 264.0 mg/kg/injection, schedule: Q04DX003 (ip), vehicle: saline with Tween-80) 120 % of control; (dose: 400.0 mg/kg/injection, schedule: Q04DX003 (ip), vehicle: saline with Tween-80) 120 % of control.
Turning to `CCOCc1nc2nc(Cl)c(Cl)nc2[nH]1`, the T/C runs as follows: under setting [4], 89 % of control and 99 % of control; under setting [5], 89 % of control and 100 % of control; (dose: 25.0 mg/kg/injection, schedule: Q04DX003 (ip), vehicle: saline with Tween-80) 100 % of control; under setting [6], 86 % of control and 104 % of control and 105 % of control; under setting [7], 98 % of control; under setting [1], 100 % of control. In addition, the T/C was 98 % of control under setting [2]; 89 % of control and 104 % of control under setting [3].
As for `Oc1ccc(Nc2c3ccccc3nc3c2ccc2ccccc23)cc1CN(CCCl)CCCl`, the T/C is 100 % of control (dose: 0.08 mg/kg/injection, schedule: Q01DX009 (ip), vehicle: saline); 90 % of control (dose: 0.12 mg/kg/injection, schedule: Q01DX009 (ip), vehicle: saline); 168 % of control (dose: 0.51 mg/kg/injection, schedule: Q01DX009 (ip), vehicle: saline); 110 % of control (dose: 0.52 mg/kg/injection, schedule: Q01DX009 (ip), vehicle: saline); 100 % of control (dose: 1.02 mg/kg/injection, schedule: Q01DX009 (ip), vehicle: saline); 163 % of control (dose: 1.1 mg/kg/injection, schedule: Q01DX009 (ip), vehicle: saline). Further, the T/C was 100 % of control (dose: 1.17 mg/kg/injection, schedule: Q01DX009 (ip), vehicle: saline); 109 % of control (dose: 1.56 mg/kg/injection, schedule: Q01DX009 (ip), vehicle: saline); 159 % of control (dose: 1.65 mg/kg/injection, schedule: Q04DX003 (ip), vehicle: saline); 100 % of control (dose: 2.1 mg/kg/injection, schedule: Q04DX003 (ip), vehicle: saline); 168 % of control (dose: 2.34 mg/kg/injection, schedule: Q01DX009 (ip), vehicle: saline).
Consider `CCOC(=O)C1(CCOC)CCCCC1=O` (stereo not given), for which the T/C is 106 % of control under setting [6]; 117 % of control under setting [1]; 115 % of control (dose: 200.0 mg/kg/injection, schedule: Q01DX009 (ip), vehicle: saline with Tween-80).
As for `CC1=CC(=O)OC2(C1)CC1CCC2CN1C` (stereo not given), the T/C is, setting by setting: (dose: 12.5 mg/kg/injection, schedule: Q01DX009 (ip), vehicle: saline) 110 % of control; (dose: 25.0 mg/kg/injection, schedule: Q01DX009 (ip), vehicle: saline) 100 % of control; (dose: 25.0 mg/kg/injection, schedule: Q04DX003 (ip), vehicle: saline) 100 % of control; under setting [8], 100 % of control; (dose: 50.0 mg/kg/injection, schedule: Q04DX003 (ip), vehicle: saline) 104 % of control.
On to `CCOC(=O)N/N=C\c1cc(OC)c(OC)c(OC)c1`, for which the T/C is 95 % of control (dose: 6.25 mg/kg/injection, schedule: Q01DX009 (ip), vehicle: saline with Tween-80); 90 % of control under setting [4]; 90 % of control under setting [5]; 90 % of control under setting [6]; 100 % of control under setting [7]; 108 % of control under setting [2]. In addition, the T/C under setting [3] was 104 % of control.
With `NC(=S)N/N=C/c1c[nH]c2ccccc12`, the T/C was 100 % of control (dose: 100.0 mg/kg/injection, schedule: Q04DX003 (ip), vehicle: Klucel (hydroxypropylcellulose) (HPC)); 113 % of control (dose: 200.0 mg/kg/injection, schedule: Q04DX003 (ip), vehicle: Klucel (hydroxypropylcellulose) (HPC)); 104 % of control (dose: 400.0 mg/kg/injection, schedule: Q04DX003 (ip), vehicle: Klucel (hydroxypropylcellulose) (HPC)).
With `CC12CCC(C=C1N1CCOCC1)C(C)(C)O2` (stereo not given), the T/C was 114 % of control (dose: 50.0 mg/kg/injection, schedule: Q01DX005 (ip), vehicle: saline); 122 % of control (dose: 100.0 mg/kg/injection, schedule: Q01DX005 (ip), vehicle: saline); 111 % of control (dose: 200.0 mg/kg/injection, schedule: Q01DX005 (ip), vehicle: saline).
`Cc1ccc(NC(=O)OCCOc2ccc(-c3ccccc3)cc2)c([N+](=O)[O-])c1`: the T/C runs as follows: (dose: 12.5 mg/kg/injection, schedule: Q01DX009 (ip), vehicle: DMSO) 100 % of control; (dose: 25.0 mg/kg/injection, schedule: Q01DX009 (ip), vehicle: DMSO) 119 % of control; (dose: 50.0 mg/kg/injection, schedule: Q01DX009 (ip), vehicle: DMSO) 102 % of control.
In the case of `CC(=O)OC1CC(OC2C(O)CC(OC3C(O)CC(OC4CCC5(C)C(CCC6C5CCC5(C)C(C7=CC(=O)OC7)C(O)CC65O)C4)OC3C)OC2C)OC(C)C1OC1OC(CO)C(O)C(O)C1O` (stereo not given), the T/C is 109 % of control (dose: 12.5 mg/kg/injection, schedule: Q01DX010 (ip), vehicle: carboxymethylcellulose (CMC)); 110 % of control (dose: 12.5 mg/kg/injection, schedule: Q04DX003 (ip), vehicle: Klucel (hydroxypropylcellulose) (HPC)); 95 % of control (dose: 25.0 mg/kg/injection, schedule: Q01DX010 (ip), vehicle: carboxymethylcellulose (CMC)); 120 % of control (dose: 25.0 mg/kg/injection, schedule: Q04DX003 (ip), vehicle: Klucel (hydroxypropylcellulose) (HPC)).
Turning to `CC(=O)c1ccc(F)c(C)c1`, the T/C (dose: 100.0 mg/kg/injection, schedule: Q01DX001 (ip), vehicle: saline sonified) was 105 % of control; the T/C (dose: 200.0 mg/kg/injection, schedule: Q01DX001 (ip), vehicle: saline sonified) is 110 % of control; the T/C (dose: 400.0 mg/kg/injection, schedule: Q01DX001 (ip), vehicle: saline sonified) is 105 % of control.
Regarding `CC(C)(C)OC(=O)NC(CCSCC(=O)O)C(N)=O` (stereo not given), the T/C is, setting by setting: under setting [8], 91 % of control; (dose: 100.0 mg/kg/injection, schedule: Q01DX009 (ip), vehicle: saline) 88 % of control; (dose: 200.0 mg/kg/injection, schedule: Q01DX009 (ip), vehicle: saline) 95 % of control.
